Where a name gives a salt, the structure may show the parent alone.
Assay: Comparative stability, Formulation 2 (based on Alkeran)
Type: physicochemical
Settings: Formulation 2, 25° C.
Description: The stability of Compound (1c) either as the HCl salt or as the free base was compared to the stability of melphalan HCl and/or bendamustine HCl in various pharmaceutical formulations and at different concentrations and at temperatures of 0° C. or 25° C.
The stability of the compounds in the pharmaceutical formulations was determined at concentrations within the range from 0.4 mg/mL to 0.5 mg/mL, from 0.9 mg/mL to 1.1 mg/mL, and from 1.8 mg/mL to 2.1 mg/mL.
The amount of the active pharmaceutical ingredient (API) (Compound (1c), melphalan or bendamustine) in the pharmaceutical formulations at different times during storage was determined using HPLC/UV as described in detail for Example 4 and Example 5.
Alkeran® is an injectable formulation of melphalan-HCl approved by the FDA. Alkeran® for injection is supplied as a sterile, nonpyrogenic, freeze-dried powder. Each vial contains melphalan hydrochloride equivalent to 50 mg melphalan and 20 mg povidone (polyvinylpyrrolidinone, PVP). The solid powder is recons trued in a sterile diluent containing 0.2 g of sodium citrate, 6.0 mL of propylene glycol, and 0.52 mL of ethanol (96%) and Water for Injection for a total of 10 mL. This provides a nominal 5 mg/mL solution of melphalan (admixture). The dose to be administered is immediately diluted in 0.9% sodium chloride injection, USP, to a concentration not greater than 0.45 mg/mL. Alkeran® for injection is administered intravenously.
A stock solution was prepared by dissolving 68.8 mg (0.206 mmol) of Compound (1c) (free base) and 25.0 mg of Plasdone® C-12 (Povidone; Ashland, 830796) in about 20.0 mL of a mixture of acetonitrile/water (1:1, v/v) with vortexing in clean graduated glass cylinder (25 mL). A solution of 0.407 mL of 0.5072 M aq. HCl (0.206 mmol, 1.0 eq.; Fluka, 318957) was added with gentle vortexing, and the resulting clear solution was further diluted to 25.0 mL with a mixture of acetonitrile/water (1:1, v/v) with gentle vortexing to afford a stock solution of Compound (1c) as a mono-HCl salt of a concentration 2.75 mg/mL and a Plasdone® concentration of 1.0 mg/mL. This solution was filtered through a 0.45 μm nylon syringe filter into a clean 50 mL Erlenmeyer flask. Aliquots of 2.0 mL (2× 1.0 mL; 2× 2.75 mg) of this stock solution were rapidly pipetted into clean 12 mL scintillation vials. The aliquots were frozen at −78° C. (dry ice/acetone bath) and lyophilized at about 100 mTorr for about 16 hours to provide test vials each containing 6.1 mg (0.0165 mmol) of Compound (1c) mono-hydrochloride salt (mono-HCl salt) (corresponding to 5.5 mg of Compound (1c), free base, as a colorless powdery solid.
A stock solution was prepared by dissolving 62.5 mg (0.205 mmol) of melphalan (free base; SigmaAldrich, M2011) and 25.0 mg of Plasdone® C-12 (Povidone; Ashland, 830796) in about 20.0 mL of a mixture of acetonitrile/water (1:1, v/v) with vortexing in clean graduated glass cylinder (25 mL). A solution of 0.404 mL of 0.5072 M aq. HCl (0.205 mmol, 1.0 eq.; Fluka, 318957) was added with gentle vortexing, and the resulting clear solution was further diluted to 25.0 mL with a mixture of acetonitrile/water (1:1, v/v) with gentle vortexing to afford a stock solution of melphalan as a mono-HCl salt of a concentration 2.50 mg/mL and a Plasdone® concentration of 1.0 mg/mL. This solution was filtered through a 0.45 μm nylon syringe filter into a clean 50 mL Erlenmeyer flask. Aliquots of 2.0 mL (2× 1.0 mL; 2×2.50 mg) of this stock solution were rapidly pipetted into clean 12 mL scintillation vials. The aliquots were frozen at −78° C. (dry ice/acetone bath) and lyophilized at about 100 mTorr for about 16 hours to provide test vials each containing 5.6 mg (0.0164 mmol) of melphalan mono-hydrochloride salt (mono-HCl salt) (corresponding to 5.0 mg of melphalan as a free base) as a colorless powdery solid. […]

[1] = pH 5.5-5.8, 0.5 hours, 0.4-0.5 mg/mL
[2] = pH 5.5-5.8, 0.5 hours, 0.9-1.1 mg/mL
[3] = pH 5.5-5.8, 0.5 hours, 1.8-2.1 mg/mL
[4] = pH 5.5-5.8, 2.0 hours, 0.4-0.5 mg/mL
[5] = pH 5.5-5.8, 2.0 hours, 0.9-1.1 mg/mL
[6] = pH 5.5-5.8, 2.0 hours, 1.8-2.1 mg/mL

Compound	% API [1] [%]	% API [2] [%]	% API [3] [%]	% API [4] [%]	% API [5] [%]	% API [6] [%]
Cl.N[C@@H](Cc1ccc(N(CCCl)CCCl)cc1)C(=O)O [Melphalan•HCl, 4-[bis(2-chloroethyl)amino]-L-phenylalanine hydrochloride, reference compound]	95	91	91	84	71	75
Cc1ccc(N(CCCl)CCCl)cc1C[C@H](N)CC(=O)O [Compound (1c)•HCl, (S)-3-amino-4-(5-(bis(2-chloroethyl)amino)-2-methylphenyl) butanoic acid mono hydrochloride salt]	91	89	89	72	60	62

— patent US20250282895A1, “PHARMACEUTICAL COMPOSITIONS OF CHEMOTHERAPEUTIC AGENTS BASED ON BETA-S[…]-AMINO ACID DERIVATIVES” (priority 2021, published 2025)
